# “Also recorded” adds a separate entry of the source.
# Key:
# Assay type in all cases: in vivo, mice
# [1] = tested on: bleomycin-induced PF mouse model; experiment: Survival in bleomycin-induced pulmonary fibrosis mouse model
# Procedure: (§1) The compounds were administered by oral gavage once daily as indicated. The vehicle was a 1:1:18 ratio of DMSO:Tween® 80:saline. Oral formulations were applied at 0.3 and 3 mg/mL concentrations to achieve doses of 3 and 30 mg/kg, respectively.
# (§2) All animal procedures were conducted in accordance with the rules and regulations of the Institutional Animal Care and Use Committee of the National Institutes of Alcohol Abuse and Alcoholism (NIAAA), under the protocols of LPS-GK1. Thirteen-week-old male C57BL/6J mice were obtained from The Jackson Laboratory (Bar Harbor, Maine, USA). Grm5^−/− (mGluR5 KO) mice (JAX 003121) were purchased from The Jackson Laboratory. […] (CB1R KO) mice were generated as described in Zimmer et al., Proc. Natl. Acad. Sci. USA, 96:5780-5785 (1999). Cnr1^−/− and Grm5^−/− mice were on a C57BL/6J genetic background. Both Grm5^−/− and Cnr1^−/− mice colonies were maintained with heterozygous breeding. Mice were housed individually under a 12-hour light/dark cycle and fed a standard diet, ad libitum (Teklad NIH-31; Envigo, Huntingdon, UK).
# A bleomycin-induced pulmonary fibrosis model by delivery of bleomycin via oropharyngeal aspiration was generated as described in Park et al., Am. J. Respir. Cell Mol. Biol., 62(2):178-190 (2020). Briefly, bleomycin was delivered to mice anesthetized with ketamine/xylazine through the oropharynx at 1 U/kg dose using a sterile 100 μL pipette during inspiration at a volume of 100 μL/50 g body weight. Sterile saline was used as vehicle and applied to the control groups. The animals were then allowed to recover from the anesthesia.
# Survival curves were plotted using GraphPad Prism 9 software. Survival was analyzed by using Log-rank (Mantel-Cox) test for assessing the statistical difference between animal groups.
# [2] = tested on: bleomycin-induced PF mouse model; experiment: Lung function measurements (FlexiVent) in bleomycin-induced PF mouse model
# Procedure: as §1
# as §2, with “Mice were housed individually under a 12-hour light/dark cycle and fed a standard diet, ad libitum (Teklad NIH-31; Envigo, Huntingdon, UK).” left out
# Respiratory system mechanics measurements were performed using the FlexiVent FX system (SCIREQ Inc., Montreal, Canada), which is equipped with an FX1 module and negative pressure forced expiration (NPFE) extension for mice. […] Pressure-volume (PV) curve, airway resistance, tissue damping (G), tissue elastance (H), forced expiratory volume per 0.1 seconds (FEV 0.1), forced vital capacity (FVC), inspiratory capacity (IC), and inhaled air amount (A) parameters were measured. […]
# [3] = tested on: bleomycin-induced PF mouse model; experiment: Body weight in bleomycin-induced PF mouse model; settings: basimglurant 3 mg/kg oral, days 8 to 28 after single bleomycin administration, vs vehicle
# Procedure: as §1, §2
# A bleomycin-induced pulmonary fibrosis model by delivery of bleomycin via oropharyngeal aspiration was generated as described in Park et al., Am. J. Respir. Cell Mol. Biol., 62(2):178-190 (2020). […]
# [4] = tested on: bleomycin-induced PF mouse model; experiment: Lung hydroxyproline (fibrosis marker) in bleomycin-induced PF mouse model; settings: fenobam 30 mg/kg daily oral for 14 days vs vehicle, bleomycin 1 U/kg
# Procedure: as §1
# as §2, with “UK). […]” for “UK).”
# The degree of lung fibrosis was quantified biochemically by measuring the hydroxyproline content of lung extracts using liquid chromatography/tandem mass spectrometry (LC-MS/MS) as described in Park et al., Am. […]
# [5] = basimglurant 3 mg/kg oral, days 8 to 28 after single bleomycin administration, vs vehicle
smiles,measurement,setting,value
"Cc1nc(C#Cc2ccnc(Cl)c2)c(C)n1-c1ccc(OC(F)(F)F)cc1 [CTEP, 2-chloro-4-((2,5-dimethyl-1-(4-(trifluoromethoxy)phenyl)-1H-imidazol-4-yl)ethynyl)pyridine]",survival rate,"[1]; CTEP 3 mg/kg daily oral for 28 days after single oropharyngeal bleomycin 1 U/kg, vehicle-treated mice 50%",100%
same,survival (in words),"[1]; CTEP 3 mg/kg daily oral gavage vs vehicle, bleomycin 1 U/kg",significantly improved survival; also recorded: prevented mortality
Cc1nc(C#Cc2ccnc(Cl)c2)c(C)n1-c1ccc(F)cc1 [basimglurant],survival rate (in words),[1]; [5],increased survival rate
same,pulmonary tissue stiffness,[2]; [5],reduced pulmonary tissue stiffness
same,body weight loss,[3],reduced body weight loss
CN1CC(=O)NC1=NC(=O)Nc1cccc(Cl)c1 [fenobam],fibrosis as measured by hydroxyproline level in lungs,[4],significantly attenuated fibrosis; also recorded: attenuated pulmonary fibrosis
same,decline in pulmonary function parameter: forced expiratory volume (FEV) at 0.1 sec. (air flow),"[2]; fenobam 30 mg/kg daily oral for 14 days vs vehicle, bleomycin 1 U/kg",significantly attenuated
